Measured values as given in US8383581B2, “Short-chain peptides as parathyroid hormone (PTH) receptor agonist” (Cadila Healthcare Limited, priority 2009, dated 2013).
Where a SMILES comes first, the peptide text is derived from it. [ ]: non-standard residue; d: D form. ξ: configuration not given here. Arg(NO2) = N=C(NCCC[C@H](N)C(=O)O)N[N+](=O)[O-]; αMePhe(2,6-F2) = C[C@](N)(Cc1c(F)cccc1F)C(=O)O; ξαMePhe(2,6-F2) = CC(N)(Cc1c(F)cccc1F)C(=O)O; ξαMePhe(2-F) = CC(N)(Cc1ccccc1F)C(=O)O; hCit = NC(=O)NCCCC[C@H](N)C(=O)O; Cit = NC(=O)NCCC[C@H](N)C(=O)O; Nle = CCCC[C@H](N)C(=O)O; Ac5c = NC1(C(=O)O)CCCC1; Aib = CC(C)(N)C(=O)O

Columns and labels:
Type in all cases: in vitro ADME
[1] = Stability of peptides in human plasma; settings: human, plasma; for metabolised at 24 h, 2 μM: pH 7.8
Outline: (§1)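 Peptides at 2 μM final incubated 0–24 h at 37 °C (50 mM triethanolamine-HCl, pH 7.8) in each matrix, matrix level set to degrade ~50% PTH(1-34) in 1 h; TFA-quenched, C18 HPLC at 206 nm with ESI-MS peak identification; percent degradation from peak areas at each time point.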

[2] = Stability of peptides in simulated gastric fluid (pH 1.5; HCl, NaCl and Pepsin); settings: pH 1.5; for % degradation of peptides in 24 h when incubated with simulated gastric fluid: 2 μM; for half-life (t1/2) in simulated gastric fluid / half-life: simulated gi fluid
[3] = Stability of peptides in simulated intestinal fluid (pH 7.5); settings: pH 7.5; for half-life (t1/2) in simulated intestinal fluid / half-life: simulated gi fluid; for % degradation of peptides in 24 h when incubated with simulated intestinal fluid: 2 μM
Outline: as §1

[4] = Stability of peptides in human liver microsomes; settings: human, microsomes; for % degradation of peptides in 24 h when incubated with liver microsomes: 2 μM, pH 7.8
Outline: as §1

CCCC[C@H](NC(=O)C(C)(Cc1ccccc1F)NC(=O)[C@H](CCC(N)=O)NC(=O)[C@@H](NC(=O)[C@H](CCC(=O)O)NC(=O)C(C)(C)NC(=O)[C@@H](NC(=O)C1(N)CCCC1)C(C)C)[C@@H](C)CC)C(=O)N[C@@H](Cc1c[nH]cn1)C(=O)N[C@@H](CCC(N)=O)C(=O)N[C@@H](CCCCNC(N)=O)C(=O)N[C@@H](C)C(=O)N[C@@H](CCCNC(N)=O)C(=O)NC(C)(Cc1ccccc1F)C(N)=O (some centres unmarked) [Seq. ID. 411] (H-[Ac5c]V[Aib]EIQ[ξαMePhe(2-F)][Nle]HQ[hCit]A[Cit][ξαMePhe(2-F)]-NH2)
half-life [1]: 8 h
metabolised at 24 h, 2 μM [1]: 77%
% degradation of peptides in 24 h when incubated with simulated gastric fluid [2]: 14%
half-life (t1/2) in simulated gastric fluid [2]: (8) h
half-life (t1/2) in simulated intestinal fluid [3]: (6) h
% degradation of peptides in 24 h when incubated with simulated intestinal fluid [3]: 45%
half-life [4]: 1 h
% degradation of peptides in 24 h when incubated with liver microsomes [4]: 81%

CCCC[C@H](NC(=O)C(C)(Cc1c(F)cccc1F)NC(=O)[C@H](CCC(N)=O)NC(=O)[C@@H](NC(=O)[C@H](CCC(=O)O)NC(=O)C(C)(C)NC(=O)[C@@H](NC(=O)C(C)(C)N)C(C)C)[C@@H](C)CC)C(=O)N[C@@H](Cc1c[nH]cn1)C(=O)N[C@@H](CCC(N)=O)C(=O)N[C@@H](CCCCNC(N)=O)C(=O)NC(C)(C)C(=O)NC(C)(C)C(=O)NC(C)(Cc1ccccc1F)C(N)=O (some centres unmarked) [Seq. ID. 430] (H-[Aib]V[Aib]EIQ[ξαMePhe(2,6-F2)][Nle]HQ[hCit][Aib][Aib][ξαMePhe(2-F)]-NH2)
half-life [1]: > 24 h
metabolised at 24 h, 2 μM [1]: 0%
% degradation of peptides in 24 h when incubated with simulated gastric fluid [2]: 45%
half-life [2]: 4 h
half-life [3]: > 24 h
% degradation of peptides in 24 h when incubated with simulated intestinal fluid [3]: 00%
half-life [4]: 2 h
% degradation of peptides in 24 h when incubated with liver microsomes [4]: 85%

CCCC[C@H](NC(=O)C(C)(Cc1c(F)cccc1F)NC(=O)[C@H](CCC(N)=O)NC(=O)[C@@H](NC(=O)[C@H](CCC(=O)O)NC(=O)C(C)(C)NC(=O)[C@@H](NC(=O)C1(N)CCCC1)C(C)C)[C@@H](C)CC)C(=O)N[C@@H](Cc1c[nH]cn1)C(=O)N[C@@H](CCC(N)=O)C(=O)N[C@@H](CCCCNC(N)=O)C(=O)NC(C)(C)C(=O)NC(C)(C)C(=O)NC(C)(Cc1c(F)cccc1F)C(N)=O (some centres unmarked) [Seq. ID. 440] (H-[Ac5c]V[Aib]EIQ[ξαMePhe(2,6-F2)][Nle]HQ[hCit][Aib][Aib][ξαMePhe(2,6-F2)]-NH2)
half-life [1]: > 24 h
metabolised at 24 h, 2 μM [1]: 0%
% degradation of peptides in 24 h when incubated with simulated gastric fluid [2]: 43%
half-life [2]: 4 h
half-life [3]: > 24 h
% degradation of peptides in 24 h when incubated with simulated intestinal fluid [3]: 00%
half-life [4]: 2 h
% degradation of peptides in 24 h when incubated with liver microsomes [4]: 84%

CCCC[C@H](NC(=O)C(C)(Cc1ccccc1F)NC(=O)[C@H](CCC(N)=O)NC(=O)[C@@H](NC(=O)[C@H](CCC(=O)O)NC(=O)C(C)(C)NC(=O)[C@@H](NC(=O)C1(N)CCCC1)C(C)C)[C@@H](C)CC)C(=O)N[C@@H](Cc1c[nH]cn1)C(=O)N[C@@H](CCC(N)=O)C(=O)N[C@@H](CCCCNC(N)=O)C(=O)NC(C)(C)C(=O)N[C@@H](CCCNC(=N)N[N+](=O)[O-])C(=O)NC(C)(Cc1ccccc1F)C(N)=O (some centres unmarked) [Seq. ID. 460] (H-[Ac5c]V[Aib]EIQ[ξαMePhe(2-F)][Nle]HQ[hCit][Aib][Arg(NO2)][ξαMePhe(2-F)]-NH2)
half-life [1]: 8 h
metabolised at 24 h, 2 μM [1]: 71%
% degradation of peptides in 24 h when incubated with simulated gastric fluid [2]: 14%
half-life (t1/2) in simulated gastric fluid [2]: (8) h
half-life (t1/2) in simulated intestinal fluid [3]: (6) h
% degradation of peptides in 24 h when incubated with simulated intestinal fluid [3]: 40%
half-life [4]: 1 h
% degradation of peptides in 24 h when incubated with liver microsomes [4]: 78%

CCCC[C@H](NC(=O)C(C)(Cc1c(F)cccc1F)NC(=O)[C@H](CCC(N)=O)NC(=O)[C@@H](NC(=O)[C@H](CCC(=O)O)NC(=O)C(C)(C)NC(=O)[C@@H](NC(=O)C1(N)CCCC1)C(C)C)[C@@H](C)CC)C(=O)N[C@@H](Cc1c[nH]cn1)C(=O)N[C@@H](CCC(N)=O)C(=O)NC(C)(Cc1c(F)cccc1F)C(=O)NC(C)(C)C(=O)N[C@@H](CCCNC(N)=O)C(=O)NC(C)(Cc1ccccc1F)C(N)=O (some centres unmarked) [Seq. ID. 480] (H-[Ac5c]V[Aib]EIQ[ξαMePhe(2,6-F2)][Nle]HQ[ξαMePhe(2,6-F2)][Aib][Cit][ξαMePhe(2-F)]-NH2)
half-life [1]: > 24 h
metabolised at 24 h, 2 μM [1]: 0%
% degradation of peptides in 24 h when incubated with simulated gastric fluid [2]: 00%
half-life [2]: > 24 h
half-life [3]: > 24 h
% degradation of peptides in 24 h when incubated with simulated intestinal fluid [3]: 00%
half-life (t1/2) in liver microsomes [4]: (5) h
% degradation of peptides in 24 h when incubated with liver microsomes [4]: 32%

CCCC[C@H](NC(=O)C(C)(Cc1ccccc1F)NC(=O)[C@H](CCC(N)=O)NC(=O)[C@@H](NC(=O)[C@H](CCC(=O)O)NC(=O)C(C)(C)NC(=O)[C@@H](NC(=O)C(C)(C)N)C(C)C)[C@@H](C)CC)C(=O)N[C@@H](Cc1c[nH]cn1)C(=O)N[C@@H](CCC(N)=O)C(=O)NC(C)(Cc1c(F)cccc1F)C(=O)NC(C)(C)C(=O)NC(C)(C)C(=O)NC(C)(Cc1ccccc1F)C(N)=O (some centres unmarked) [Seq. ID. 490] (H-[Aib]V[Aib]EIQ[ξαMePhe(2-F)][Nle]HQ[ξαMePhe(2,6-F2)][Aib][Aib][ξαMePhe(2-F)]-NH2)
half-life [1]: > 24 h
metabolised at 24 h, 2 μM [1]: 0%
% degradation of peptides in 24 h when incubated with simulated gastric fluid [2]: 43%
half-life [2]: 4 h
half-life [3]: > 24 h
% degradation of peptides in 24 h when incubated with simulated intestinal fluid [3]: 00%
half-life [4]: 2 h
% degradation of peptides in 24 h when incubated with liver microsomes [4]: 84%

CCCC[C@H](NC(=O)C(C)(Cc1c(F)cccc1F)NC(=O)[C@H](CCC(N)=O)NC(=O)[C@@H](NC(=O)[C@H](CCC(=O)O)NC(=O)C(C)(C)NC(=O)[C@@H](NC(=O)C(C)(C)N)C(C)C)[C@@H](C)CC)C(=O)N[C@@H](Cc1c[nH]cn1)C(=O)N[C@@H](CCC(N)=O)C(=O)NC(C)(Cc1c(F)cccc1F)C(=O)NC(C)(C)C(=O)NC(C)(Cc1c(F)cccc1F)C(=O)NC(C)(Cc1ccccc1F)C(N)=O (some centres unmarked) [Seq. ID. 510] (H-[Aib]V[Aib]EIQ[ξαMePhe(2,6-F2)][Nle]HQ[ξαMePhe(2,6-F2)][Aib][ξαMePhe(2,6-F2)][ξαMePhe(2-F)]-NH2)
half-life [1]: > 24 h
metabolised at 24 h, 2 μM [1]: 0%
% degradation of peptides in 24 h when incubated with simulated gastric fluid [2]: 41%
half-life [2]: 4 h
half-life [3]: > 24 h
% degradation of peptides in 24 h when incubated with simulated intestinal fluid [3]: 00%
half-life [4]: 2 h
% degradation of peptides in 24 h when incubated with liver microsomes [4]: 80%

CCCC[C@H](NC(=O)C(C)(Cc1c(F)cccc1F)NC(=O)[C@H](CCC(N)=O)NC(=O)[C@@H](NC(=O)[C@H](CCC(=O)O)NC(=O)C(C)(C)NC(=O)[C@@H](NC(=O)C(C)(C)N)C(C)C)[C@@H](C)CC)C(=O)N[C@@H](Cc1c[nH]cn1)C(=O)N[C@@H](CCC(N)=O)C(=O)NC(C)(Cc1c(F)cccc1F)C(=O)N[C@@H](C)C(=O)N[C@@H](CCCNC(=N)N[N+](=O)[O-])C(=O)NC(C)(Cc1ccccc1F)C(N)=O (some centres unmarked) [Seq. ID. 525] (H-[Aib]V[Aib]EIQ[ξαMePhe(2,6-F2)][Nle]HQ[ξαMePhe(2,6-F2)]A[Arg(NO2)][ξαMePhe(2-F)]-NH2)
half-life [1]: 8 h
metabolised at 24 h, 2 μM [1]: 78%
% degradation of peptides in 24 h when incubated with simulated gastric fluid [2]: 12%
half-life (t1/2) in simulated gastric fluid [2]: (8) h
half-life (t1/2) in simulated intestinal fluid [3]: (6) h
% degradation of peptides in 24 h when incubated with simulated intestinal fluid [3]: 55%
half-life [4]: 1 h
% degradation of peptides in 24 h when incubated with liver microsomes [4]: 79%

CCCC[C@H](NC(=O)[C@](C)(Cc1c(F)cccc1F)NC(=O)[C@H](CCC(N)=O)NC(=O)[C@@H](NC(=O)[C@H](CCC(=O)O)NC(=O)C(C)(C)NC(=O)[C@@H](NC(=O)C(C)(C)N)C(C)C)[C@@H](C)CC)C(=O)N[C@@H](Cc1c[nH]cn1)C(=O)N[C@@H](CCC(N)=O)C(=O)NC(C)(C)C(=O)NC(C)(C)C(=O)N[C@@H](CCCNC(N)=O)C(=O)N[C@@](C)(Cc1c(F)cccc1F)C(N)=O [Seq. ID. 550] (H-[Aib]V[Aib]EIQ[αMePhe(2,6-F2)][Nle]HQ[Aib][Aib][Cit][αMePhe(2,6-F2)]-NH2)
half-life [1]: 8 h
metabolised at 24 h, 2 μM [1]: 80%
% degradation of peptides in 24 h when incubated with simulated gastric fluid [2]: 13%
half-life (t1/2) in simulated gastric fluid [2]: (8) h
half-life (t1/2) in simulated intestinal fluid [3]: (6) h
% degradation of peptides in 24 h when incubated with simulated intestinal fluid [3]: 50%
half-life [4]: 1 h
% degradation of peptides in 24 h when incubated with liver microsomes [4]: 82%

CCCC[C@H](NC(=O)C(C)(Cc1c(F)cccc1F)NC(=O)[C@H](CCC(N)=O)NC(=O)[C@@H](NC(=O)[C@H](CCC(=O)O)NC(=O)C(C)(C)NC(=O)[C@@H](NC(=O)C1(N)CCCC1)C(C)C)[C@@H](C)CC)C(=O)N[C@@H](Cc1c[nH]cn1)C(=O)N[C@@H](CCC(N)=O)C(=O)NC(C)(C)C(=O)NC(C)(C)C(=O)NC(C)(C)C(=O)NC(C)(Cc1ccccc1F)C(N)=O (some centres unmarked) [Seq. ID. 560] (H-[Ac5c]V[Aib]EIQ[ξαMePhe(2,6-F2)][Nle]HQ[Aib][Aib][Aib][ξαMePhe(2-F)]-NH2)
half-life [1]: 8 h
metabolised at 24 h, 2 μM [1]: 78%
% degradation of peptides in 24 h when incubated with simulated gastric fluid [2]: 14%
half-life (t1/2) in simulated gastric fluid [2]: (8) h
half-life (t1/2) in simulated intestinal fluid [3]: (6) h
% degradation of peptides in 24 h when incubated with simulated intestinal fluid [3]: 43%
half-life [4]: 1 h
% degradation of peptides in 24 h when incubated with liver microsomes [4]: 80%
